Data set [1] relates to pooled normal human citrated plasma. The experiment in a line: Test D: Determination of Activated Partial Thromboplastin Time (APTT). Format: biochemical. Particulars: read-out: IC50 APTT (concentration of inhibitor in human plasma that doubles the Activated Partial Thromboplastin Time). Here is the method:
Determination of Activated Partial Thromboplastin Time (APTT)
APTT is determined in pooled normal human citrated plasma with the reagent PTT Automated 5 manufactured by Stago. The inhibitors are added to the plasma (10 μL inhibitor solution to 90 μL plasma) and incubated with the APTT reagent for 3 minutes followed by the addition of 100 μL of calcium chloride solution (0.025 M) and APTT is determined by use of the coagulation analyser KC10 (Amelung) according to the instructions of the reagent producer.
(§1) The clotting time is expressed as absolute values (seconds) as well as the ratio of APTT without inhibitor (APTT0) to APTT with inhibitor (APTTi). The latter ratios (range 1–0) are plotted against the concentration of inhibitor (log transformed) and fitted to sigmoidal dose-response curves according to the equation y=a/[1+(x/IC50)^s] where: a=maximum range, i.e. 1; s=slope of the dose-response curve; and IC50=the concentration of inhibitor that doubles the clotting time. The calculations are processed on a PC using the software program GraFit Version 3, setting equation equal to: Start at 0, define end=1 (Erithacus Software, Robin Leatherbarrow, Imperial College of Science, London, UK). IC50APTT is defined as the concentration of inhibitor in human plasma that doubles the Activated Partial Thromboplastin Time. Test E Determination of Thrombin Time ex vivo

Data set [2] is described as follows: Test G: Determination of in vitro Stability, human liver microsomes. Format: in vitro ADME. Particulars: liver microsomes from humans, 37° C., up to 60 min. As for the experimental part:
(§2) Plasma clearance is estimated in male Sprague Dawley rats. The compound is dissolved in water and administered as a subcutaneous bolus injection at a dose of 4 μmol/kg. Blood samples are collected at frequent intervals up to 5 hours after drug administration. Blood samples are centrifuged and plasma is separated from the blood cells and transferred to vials containing citrate (10% final concentration). 50 μL of plasma samples are precipitated with 100 μL of cold acetonitrile. The samples are centrifuged for 10 minutes at 4000 rpm. 75 μL of the supernatant is diluted with 75 μL of 0.2% formic acid. 10 μL volumes of the resulting solutions are analysed by LC-MS/MS and the concentrations of thrombin inhibitor are determined using standard curves. The area under the plasma concentration-time profile is estimated using the log/linear trapezoidal rule and extrapolated to infinite time. Plasma clearance (CL) of the compound is then determined as CL=Dose/AUC The values are reported in mL/min/kg. Test G Determination of in vitro Stability
(§3) Liver microsomes are prepared from Sprague-Dawley rats and human liver samples according to internal SOPs. […] The concentration of compound remaining (FINAL CONC) in the 60 min. sample is determined by means of LCMS using a sample collected at zero time as reference (START CONC). The % of degraded thrombin inhibitor is calculated as: […]

Data set [3] can be described thus: Test E: Determination of Thrombin Time ex vivo (plasma concentration of thrombin inhibitor after oral or parenteral administration). Format: in vivo, rat. Particulars: conscious rats, plasma analysed by LC-MS/MS.
Text: as §1
The inhibition of thrombin after oral or parenteral administration of the compounds of the invention, dissolved in ethanol:SolutolK:water (5:5:90), is examined in conscious rats which, one or two days prior to the experiment, are equipped with a catheter for blood sampling from the carotid artery. […]
50 μL of plasma samples are precipitated with 100 μL of cold acetonitrile. […] 10 μL volumes of the resulting solutions are analysed by LC-MS/MS and the concentrations of thrombin inhibitor are determined using standard curves.

Data set [4] can be described thus: Test G: Determination of in vitro Stability, rat liver microsomes. Format: in vitro ADME, Sprague-Dawley rats. The following applies: liver microsomes from rats, 37° C., up to 60 min. Here is the method:
as §2, §3

In the case of `N=C(N)c1cc(F)c(CNC(=O)[C@@H]2CCN2C(=O)[C@H](O)c2cc(Cl)cc(OC(F)F)c2)c(F)c1` [Example 1, Ph(3-Cl)(5-OCHF2)—(R)CH(OH)C(O)—(S)Aze-Pab(2,6-diF)], the IC50 in data set [1] was < 1000 nM.

For `CO/N=C(\N)c1cc(F)c(CNC(=O)[C@@H]2CCN2C(=O)[C@H](O)c2cc(Cl)cc(OC(F)F)c2)c(F)c1` [Example 2, Ph(3-Cl)(5-OCHF2)—(R)CH(OH)C(O)—(S)Aze-Pab(2,6-diF)(OMe)], the “conversion to the corresponding active inhibitor (free amidine) in liver microsomes” value in data set [2] and in data set [4] was “converted to the corresponding active inhibitor (free amidine)” each time. Further, the “oral and/or parenteral bioavailability as the corresponding active inhibitor (free amidine)” value in data set [3] is given as “exhibit oral and/or parenteral bioavailability in the rat as the corresponding active inhibitor (free amidine)”.
